Patent US7635697B2, “Farnesyl protein transferase inhibitors and methods for treating proliferative diseases” (Schering Corporation, priority 2004, dated 2009)
“And” between values parts separate entries of the source, which are not always exact repeats. Equal entries are not always repeated.

Experiments:
Human tumor cells = assay: Soft Agar Assay (anchorage-independent growth, colony count); assay type: cell-based; conditions: ranges are stated for a listed group of compounds, range ends given as 'about <' / 'about >'
Method: Anchorage-independent growth is a characteristic of tumorigenic cell lines. Human tumor cells can be suspended in growth medium containing 0.3% agarose and an indicated concentration of a farnesyl transferase inhibitor. The solution can be overlayed onto growth medium solidified with 0.6% agarose containing the same concentration of farnesyl transferase inhibitor as the top layer. After the top layer is solidified, plates can be incubated for 10-16 days at 37° C. under 5% CO2 to allow colony outgrowth. After incubation, the colonies can be stained by overlaying the agar with a solution of MTT (3-[4,5-dimethyl-thiazol-2-yl]-2,5-diphenyltetrazolium bromide, Thiazolyl blue) (1 mg/mL in PBS). Colonies can be counted and the IC50's can be determined.

[1] = biological target: purified human farnesyl protein transferase (Homo sapiens, UniProt P49354+P49356); assay: FPT activity: transfer of [3H] farnesyl from [3H] farnesyl pyrophosphate to biotinylated H-ras peptide (SPA); assay type: biochemical; conditions: ranges are stated for a listed group of compounds; range ends given as 'about <' / 'about >'
Method: FPT activity was determined by measuring the transfer of [^3H] farnesyl from [^3H] farnesyl pyrophosphate to a biotinylated peptide derived from the C-terminus of H-ras (biotin-CVLS). The reaction mixture contains: 50 mM Tris pH7.7, 5 mM MgCl2, 5 μM Zn^++, 5 mM DTT, 0.1% Triton-X, 0.05 μM peptide, 0.03 nM purified human farnesyl protein transferase, 0.180 μM [^3H] farnesyl pyrophosphate, plus the indicated concentration of tricyclic compound or vehicle control in a total volume of 100 μl. The reaction was incubated in a Vortemp shaking incubator at 37° C., 45 RPM for 60 minutes and stopped with 150 μl of 0.25 M EDTA containing 0.5% BSA and 1.3 mg/ml Streptavidin SPA beads. Radioactivity was measured in a Wallach 1450 Microbeta liquid scintillation counter. Percent inhibition was calculated relative to the vehicle control.

Row | IC50 (Human tumor cells; Homo sapiens) [nM] | IC50 [1] | IC50 (Human tumor cells) [nM] | SMILES
1 | 0.3 to 50 | 0.05 to 8.9 nM and 0.05 to 2.7 nM and 0.05 to 1.2 nM | – | Cc1cn(Cc2cccc(NC(=O)C3CN(C4c5ccc(Cl)cc5CCc5cccnc54)CCN3C(=O)Cc3ccc(Cl)cc3)c2)cn1 (centres unmarked) [(28.1)]
2 | 0.3 to 50 | – | – | CC(C)(C)OC(=O)N1CCN(C2c3ccc(Cl)cc3CCc3cccnc32)C(C(=O)Nc2cccc(Cn3ccnc3)c2)C1 (centres unmarked) [(40.1)]
3 | 0.3 to 50 | 0.05 to 8.9 nM and 0.05 to 2.7 nM and 0.05 to 1.2 nM | – | Cc1cncn1Cc1cccc(NC(=O)C2CN(C3c4ccc(Cl)cc4CCc4cccnc43)CCN2C(=O)OC2CCCCC2)c1 (single isomer, unassigned) [(32.1)]
4 | – | 0.05 to 8.9 nM | – | Cc1cncn1Cc1cccc(NC(=O)C2CN(C3c4ccc(Cl)cc4CCc4cccnc43)CCN2C(=O)OC2CCCCC2)c1 (single isomer, unassigned) [(32.2)]
5 | 0.3 to 50 | 0.05 to 8.9 nM | – | O=C(C1CN(C2c3ccc(Cl)cc3CCc3cccnc32)CCN1C(=O)OC1CCCCC1)N(Cc1ccccc1)c1cccc(Cn2ccnc2)c1 (centres unmarked) [(16.1)]
6 | 0.3 to 50 | 0.05 to 8.9 nM and 0.05 to 2.7 nM and 0.05 to 1.2 nM | – | CC(C)(C)OC(=O)N1CCN(C2c3ccc(Cl)cc3CCc3cc(Br)cnc32)CC1C(=O)Nc1cccc(Cn2ccnc2)c1 (single isomer, unassigned) [(1.3)]
7 | 0.3 to 50 | 0.05 to 8.9 nM | – | O=C(Nc1cccc(Cn2ccnc2)c1)[C@H]1CN(C2c3ccc(Cl)cc3CCc3cccnc32)CCN1 (mixture of isomers) [(14.2)]
8 | 0.3 to 50 | 0.05 to 8.9 nM | – | Cc1cn(Cc2cccc(NC(=O)C3CN(C4c5ccc(Cl)cc5CCc5cc(Br)cnc54)CCN3)c2)cn1 (centres unmarked) [(4.3)]
9 | – | 0.05 to 8.9 nM and 0.05 to 2.7 nM and 0.05 to 1.2 nM | – | Cc1cn(Cc2cccc(NC(=O)C3CN(C4c5ccc(Cl)cc5CCc5cccnc54)CCN3S(C)(=O)=O)c2)cn1 (centres unmarked) [(29.1)]
10 | 0.3 to 50 | 0.05 to 8.9 nM and 0.05 to 2.7 nM and 0.05 to 1.2 nM | – | O=C(Nc1cccc(Cn2ccnc2)c1)C1CN([C@@H]2c3ccc(Cl)cc3CCc3cccnc32)CCN1C(=O)OC1CCCCC1 (some centres unmarked) [(15.2)]
11 | 0.3 to 50 | 0.05 to 8.9 nM and 0.05 to 2.7 nM and 0.05 to 1.2 nM | – | Cc1cn(Cc2cccc(NC(=O)C3CN([C@@H]4c5ccc(Cl)cc5CCc5cccnc54)CCN3C(=O)CC3CCN(C(N)=O)CC3)c2)cn1 (some centres unmarked) [(30.1)]
12 | 0.3 to 50 | 0.05 to 8.9 nM and 0.05 to 2.7 nM | – | Cc1cn(Cc2cccc(NC(=O)C3CN(C4c5ccc(Cl)cc5CCc5cc(Br)cnc54)CCN3C(=O)NC3CCCCC3)c2)cn1 (centres unmarked) [(6.1)]
13 | – | 0.05 to 8.9 nM and 0.05 to 2.7 nM and 0.05 to 1.2 nM | – | Cc1cn(Cc2cccc(NC(=O)C3CN(C4c5ccc(Cl)cc5CCc5cccnc54)CCN3C(=O)NC3CCCCC3)c2)cn1 (centres unmarked) [(26.1)]
14 | 0.3 to 50 | 0.05 to 8.9 nM | – | O=C(Nc1cccc(Cn2ccnc2)c1)[C@H]1CNCCN1C1c2ccc(Cl)cc2CCc2cccnc21 (some centres unmarked) [(14.3)]
15 | – | 0.05 to 8.9 nM | – | Cc1cn(Cc2cccc(NC(=O)C3CN(C4c5ccc(Cl)cc5CCc5cccnc54)CCN3C(=O)Nc3ccc(Cl)cc3)c2)cn1 (centres unmarked) [(27.1)]
16 | 0.3 to 50 | 0.05 to 8.9 nM | – | NC(=O)N1CCC(CC(=O)N2CCN(C3c4ccc(Cl)cc4CCc4cccnc43)C(C(=O)Nc3cccc(Cn4ccnc4)c3)C2)CC1 (centres unmarked) [(45.1)]
17 | – | 0.05 to 8.9 nM | – | O=C(Nc1cccc(Cn2ccnc2)c1)[C@@H]1CN(C2c3ccc(Cl)cc3CCc3cc(Br)cnc32)CCN1 (some centres unmarked) [(12.2)]
18 | 0.3 to 50 | 0.05 to 8.9 nM and 0.05 to 2.7 nM | – | Cc1cn(Cc2cccc(NC(=O)C3CN([C@@H]4c5ccc(Cl)cc5CCc5cc(Br)cnc54)CCN3C(=O)NC3CCCCC3)c2)cn1 (some centres unmarked) [(5.1)]
19 | 0.3 to 50 | 0.05 to 8.9 nM and 0.05 to 2.7 nM and 0.05 to 1.2 nM | – | O=C(Nc1cccc(Cn2ccnc2)c1)C1CN(C2c3ccc(Cl)cc3CCc3cccnc32)CCN1C(=O)OC1CCCCC1 (centres unmarked) [(15.1)]
20 | – | – | < 0.5 | Cc1nccn1Cc1cccc(NC(=O)C2CN(C3c4ccc(Cl)cc4CCc4cccnc43)CCN2C(=O)OC2CCCCC2)c1 (centres unmarked) [(31.1)]
21 | – | 0.05 to 8.9 nM and 0.05 to 2.7 nM and 0.05 to 1.2 nM | – | CC(C)(C)OC(=O)N1CCN(C2c3ccc(Cl)cc3CCc3cc(Br)cnc32)CC1C(=O)Nc1cccc(Cn2ccnc2)c1 (single isomer, unassigned) [(1.4)]
22 | – | 0.05 to 8.9 nM | – | O=C(Nc1cccc(Cn2ccnc2)c1)[C@@H]1CN(C2c3ccc(Cl)cc3CCc3cc(Br)cnc32)CCN1C1c2ccc(Cl)cc2CCc2cc(Br)cnc21 (some centres unmarked) [(12.1)]
23 | 0.3 to 50 | – | – | O=C(Nc1cccc(Cn2ccnc2)c1)[C@H]1CN(C2c3ccc(Cl)cc3CCc3cccnc32)CCN1C1c2ccc(Cl)cc2CCc2cccnc21 (some centres unmarked) [(14.1)]
24 | – | 0.05 to 8.9 nM | – | Cc1cn(CCc2ccccc2NC(=O)[C@H]2CN([C@H]3c4ccc(Cl)cc4CCc4cccnc43)CCN2C(=O)OC2CCCCC2)cn1 [(47.1)]
25 | 0.3 to 50 | 0.05 to 8.9 nM and 0.05 to 2.7 nM and 0.05 to 1.2 nM | – | Cc1cn(Cc2cccc(NC(=O)C3CN([C@@H]4c5ccc(Cl)cc5CCc5cccnc54)CCN3C(=O)OC3CCCCC3)c2)cn1 (some centres unmarked) [(22.1)]
26 | 0.3 to 50 | 0.05 to 8.9 nM | – | Cc1cn(Cc2cccc(NC(=O)C3CN([C@@H]4c5ccc(Cl)cc5CCc5cc(Br)cnc54)CCN3)c2)cn1 (some centres unmarked) [(4.2)]
27 | 0.3 to 50 | 0.05 to 8.9 nM and 0.05 to 2.7 nM and 0.05 to 1.2 nM | – | Cc1cn(Cc2cccc(NC(=O)C3CN(C4c5ccc(Cl)cc5CCc5cccnc54)CCN3C(=O)OC3CCCCC3)c2)cn1 (centres unmarked) [(21.1)]
28 | 0.3 to 50 | – | – | CC(C)(C)OC(=O)N1CCN([C@@H]2c3ccc(Cl)cc3CCc3cccnc32)C(C(=O)Nc2cccc(Cn3ccnc3)c2)C1 (some centres unmarked) [(40.2)]
